± gives the uncertainty stated by the source.
Assay: xn = mol fraction of the nth substance listed

Nc1cccc(Cl)c1 + Brc1ccccc1
100 kPa
Conditions	viscosity [mPa·s]
313.15 K, x1 = 0.6782	2.875 ± 0.1
318.15 K, x1 = 0.0902	1.155 ± 0.1

CCC(=O)O + C1CCCCC1
303.15 K, 101 kPa
Conditions	viscosity [mPa·s]
x2 = 0.1973	0.8074 ± 0.0096
x2 = 0.286	0.771 ± 0.0092
x2 = 0.384	0.7319 ± 0.0087
x2 = 0.4987	0.7121 ± 0.0085
x2 = 0.5994	0.7197 ± 0.0086
x2 = 0.6998	0.7155 ± 0.0085
x2 = 0.8991	0.7582 ± 0.009

CCC(=O)O + C1CCOC1
298.15 K, 101 kPa
Conditions	viscosity [mPa·s]
x2 = 0.1025	1.067 ± 0.009
x2 = 0.2043	1.069 ± 0.009
x2 = 0.3057	1.033 ± 0.0087
x2 = 0.4065	0.9675 ± 0.0082
x2 = 0.5067	0.8745 ± 0.0074
x2 = 0.6065	0.7835 ± 0.0067
x2 = 0.7056	0.6858 ± 0.0059
x2 = 0.8043	0.5947 ± 0.0052
x2 = 0.9024	0.5179 ± 0.0045

CCC(=O)O + C1COCO1
298.15 K, 101 kPa
Conditions	viscosity [mPa·s]
x2 = 0.1	1.018 ± 0.0086
x2 = 0.2	1.003 ± 0.0085
x2 = 0.3	0.9794 ± 0.0083
x2 = 0.4	0.9457 ± 0.008
x2 = 0.5	0.9011 ± 0.0076
x2 = 0.6	0.8454 ± 0.0072
x2 = 0.7	0.788 ± 0.0067
x2 = 0.8	0.7223 ± 0.0062
x2 = 0.9	0.6544 ± 0.0056

CC12CCC(CC1)C(C)(C)O2 + C=CC(C)(O)CCC=C(C)C
viscosity [mPa·s], 101.33 kPa
Conditions	298.15 K	313.15 K
x1 = 0.0536	4.296 ± 0.035	2.489 ± 0.02
x1 = 0.1357	4.062 ± 0.033	2.401 ± 0.02
x1 = 0.2205	3.835 ± 0.031	2.316 ± 0.019
x1 = 0.3081	3.614 ± 0.029	2.236 ± 0.018
x1 = 0.4288	3.347 ± 0.027	2.138 ± 0.018
x1 = 0.562	3.093 ± 0.025	2.048 ± 0.017
x1 = 0.605	3.019 ± 0.025	2.023 ± 0.017
x1 = 0.6809	2.9 ± 0.024	1.983 ± 0.016
x1 = 0.8027	2.74 ± 0.022	1.933 ± 0.016
x1 = 0.8783	2.66 ± 0.022	1.91 ± 0.016
x1 = 0.9599	2.591 ± 0.021	1.892 ± 0.016

CCC(=O)O + CC#N
101 kPa
Conditions	viscosity [mPa·s]
298.15 K, x1 = 0.0727	0.3871 ± 0.022
298.15 K, x1 = 0.1499	0.4326 ± 0.023
298.15 K, x1 = 0.2322	0.49 ± 0.024
298.15 K, x1 = 0.3199	0.5588 ± 0.025
298.15 K, x1 = 0.4136	0.6378 ± 0.026
298.15 K, x1 = 0.5141	0.7247 ± 0.027
298.15 K, x1 = 0.6221	0.8156 ± 0.029
298.15 K, x1 = 0.7383	0.9048 ± 0.031
298.15 K, x1 = 0.864	0.9833 ± 0.032
298.35 K, x1 = 0.00118	0.3554 ± 0.0076
298.36 K, x1 = 0.000675	0.3524 ± 0.0075
298.37 K, x1 = 0.001631	0.3536 ± 0.0075
299.33 K, x1 = 0.002851	0.3563 ± 0.0076
301.03 K, x1 = 0.00118	0.3451 ± 0.0074
301.05 K, x1 = 0.000675	0.3437 ± 0.0073
301.96 K, x1 = 0.002851	0.3511 ± 0.0075
302.04 K, x1 = 0.001631	0.3472 ± 0.0074
303.03 K, x1 = 0.00118	0.338 ± 0.0072
303.04 K, x1 = 0.000675	0.3378 ± 0.0072
304.04 K, x1 = 0.001631	0.3356 ± 0.0072
304.09 K, x1 = 0.002851	0.3401 ± 0.0073
305.01 K, x1 = 0.00118	0.3316 ± 0.0071
305.04 K, x1 = 0.000675	0.3319 ± 0.0071
305.99 K, x1 = 0.002851	0.3324 ± 0.0071
306.1 K, x1 = 0.001631	0.3288 ± 0.007
308.03 K, x1 = 0.00118	0.3228 ± 0.0069
308.04 K, x1 = 0.000675	0.3223 ± 0.0069
308.15 K, x1 = 0.0727	0.3411 ± 0.022
308.15 K, x1 = 0.1499	0.3841 ± 0.022
308.15 K, x1 = 0.2322	0.4373 ± 0.023
308.15 K, x1 = 0.3199	0.4999 ± 0.024
308.15 K, x1 = 0.4136	0.5703 ± 0.025
308.15 K, x1 = 0.5141	0.646 ± 0.026
308.15 K, x1 = 0.6221	0.7227 ± 0.027
308.15 K, x1 = 0.7383	0.7943 ± 0.029
308.15 K, x1 = 0.864	0.8513 ± 0.03
309 K, x1 = 0.002851	0.3236 ± 0.0069
309.06 K, x1 = 0.001631	0.3198 ± 0.0068
311.01 K, x1 = 0.000675	0.3134 ± 0.0067
311.01 K, x1 = 0.00118	0.3139 ± 0.0067
311.96 K, x1 = 0.002851	0.3161 ± 0.0067
312.06 K, x1 = 0.001631	0.3112 ± 0.0066
318.15 K, x1 = 0.0727	0.3007 ± 0.021
318.15 K, x1 = 0.1499	0.345 ± 0.022
318.15 K, x1 = 0.2322	0.3948 ± 0.022
318.15 K, x1 = 0.3199	0.4493 ± 0.023
318.15 K, x1 = 0.4136	0.5074 ± 0.024
318.15 K, x1 = 0.5141	0.567 ± 0.025
318.15 K, x1 = 0.6221	0.6251 ± 0.026
318.15 K, x1 = 0.7383	0.6772 ± 0.027
318.15 K, x1 = 0.864	0.7168 ± 0.027

Nc1cccc(Cl)c1 + CC(=O)c1ccccc1
viscosity [mPa·s], 100 kPa
Conditions	x1 = 0.0807	x1 = 0.1719	x1 = 0.2629	x1 = 0.3608	x1 = 0.4656	x1 = 0.5646	x1 = 0.6658	x1 = 0.7765	x1 = 0.8859
303.15 K	1.647 ± 0.1	1.812 ± 0.1	1.993 ± 0.1	2.206 ± 0.1	2.459 ± 0.1	2.723 ± 0.1	3.022 ± 0.1	3.386 ± 0.1	3.788 ± 0.1
308.15 K	1.538 ± 0.1	1.688 ± 0.1	1.85 ± 0.1	2.041 ± 0.1	2.266 ± 0.1	2.5 ± 0.1	2.764 ± 0.1	3.084 ± 0.1	3.436 ± 0.1
313.15 K	1.38 ± 0.1	1.515 ± 0.1	1.66 ± 0.1	1.83 ± 0.1	2.031 ± 0.1	2.239 ± 0.1	2.474 ± 0.1	2.758 ± 0.1	3.069 ± 0.1
318.15 K	1.218 ± 0.1	1.337 ± 0.1	1.466 ± 0.1	1.616 ± 0.1	1.793 ± 0.1	1.976 ± 0.1	2.183 ± 0.1	2.433 ± 0.1	2.707 ± 0.1

ClCCCCCl + CC(C)(C)O
viscosity [mPa·s], 101 kPa
Conditions	x1 = 0.1005	x1 = 0.2009	x1 = 0.2964	x1 = 0.435	x1 = 0.5026	x1 = 0.602	x1 = 0.7061	x1 = 0.8038	x1 = 0.9014
298.15 K	2.618 ± 0.025	1.826 ± 0.018	1.482 ± 0.014	1.315 ± 0.012	1.257 ± 0.012	1.202 ± 0.011	1.18 ± 0.011	1.182 ± 0.011	1.208 ± 0.011
313.15 K	1.495 ± 0.019	1.18 ± 0.013	1.035 ± 0.01	0.9459 ± 0.0096	0.9313 ± 0.0093	0.9139 ± 0.009	0.916 ± 0.009	0.9291 ± 0.0092	0.9613 ± 0.0095

Nc1cccc(Cl)c1 + CC(C)(C)O
viscosity [mPa·s], 101 kPa
Conditions	x1 = 0.0912	x1 = 0.1842	x1 = 0.279	x1 = 0.3758	x1 = 0.4745	x1 = 0.5753	x1 = 0.6782	x1 = 0.7832	x1 = 0.8904
303.15 K	3.097 ± 0.28	3.238 ± 0.29	3.382 ± 0.3	3.525 ± 0.31	3.659 ± 0.32	3.784 ± 0.33	3.901 ± 0.34	4.013 ± 0.35	4.127 ± 0.36
308.15 K	2.819 ± 0.25	2.953 ± 0.26	3.085 ± 0.28	3.213 ± 0.29	3.333 ± 0.3	3.445 ± 0.31	3.546 ± 0.31	3.644 ± 0.32	3.742 ± 0.33
313.15 K	2.283 ± 0.21	2.423 ± 0.22	2.562 ± 0.23	2.697 ± 0.24	2.828 ± 0.25	2.954 ± 0.26	3.075 ± 0.27	3.192 ± 0.28	3.308 ± 0.29
318.15 K	1.875 ± 0.17	2.015 ± 0.19	2.153 ± 0.2	2.289 ± 0.21	2.419 ± 0.22	2.544 ± 0.23	2.665 ± 0.24	2.781 ± 0.25	2.899 ± 0.26

C1C[C@@H]2[C@H]3CC[C@H](C3)[C@@H]2C1 + CC(C)CC(C)(C)C
viscosity [mPa·s], 100 kPa
Conditions	x1 = 0.1	x1 = 0.2002	x1 = 0.3008	x1 = 0.4003	x1 = 0.5008	x1 = 0.5997	x1 = 0.6982	x1 = 0.8002	x1 = 0.9012
293.15 K	0.593 ± 0.013	0.682 ± 0.015	0.795 ± 0.017	0.929 ± 0.02	1.102 ± 0.024	1.316 ± 0.028	1.582 ± 0.034	1.959 ± 0.043	2.405 ± 0.052
298.15 K	0.563 ± 0.012	0.643 ± 0.014	0.745 ± 0.016	0.868 ± 0.019	1.026 ± 0.022	1.219 ± 0.026	1.457 ± 0.032	1.799 ± 0.039	2.194 ± 0.048
303.15 K	0.532 ± 0.011	0.608 ± 0.013	0.701 ± 0.015	0.813 ± 0.017	0.958 ± 0.021	1.132 ± 0.024	1.347 ± 0.029	1.657 ± 0.036	2.008 ± 0.044
308.15 K	0.506 ± 0.011	0.574 ± 0.012	0.661 ± 0.014	0.764 ± 0.016	0.896 ± 0.019	1.056 ± 0.023	1.251 ± 0.027	1.534 ± 0.033	1.844 ± 0.04
313.15 K	0.483 ± 0.01	0.546 ± 0.012	0.626 ± 0.013	0.719 ± 0.015	0.842 ± 0.018	0.987 ± 0.021	1.164 ± 0.025	1.42 ± 0.031	1.701 ± 0.037
